Consider 26 compounds from patent US20230059136A1, “THE COMPOUNDS AND COMPOSITIONS FOR TREATING CONDITIONS ASSOCIATED WITH NLRP ACTIVITY” (Novartis AG, priority 2018, published 2023).

pIC50: −log10 of the molar value. Bounds are passed on as bounds.

The test system of the first assay is IL-1β production in PMA-differentiated THP-1 cells. The experiment in a line: IL-1β production in PMA-differentiated THP-1 cells stimulated with gramicidin (hTHP-1 assay containing 2% fetal bovine serum). To be noted: Homo sapiens, THP-1, Table B1; 2% fetal bovine serum; cells printed as numeric bound; read-out: hTHP-1 IC50 (Average IC50 of compounds in hTHP-1 assay). The format is cell-based, human. The method, boiled down:
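THP-1 cells were differentiated with PMA 20 ng/ml for 16-18 h, then plated at 50,000 cells/well in RPMI with 2% FBS. They were preincubated 1 h with compound (100–0.0017 μM final, 0.37% DMSO), then stimulated with gramicidin 5 μM for 2 h. Supernatant IL-1β was measured by HTRF.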
On to `CC(C)c1cc(C(F)F)cc(C(C)C)c1CC(=O)N=S(N)(=O)c1ccc(CN(C)C)nc1` (single isomer, unassigned) [Example 327, (S) or (R)-N-(amino(6-((dimethylamino)methyl)pyridin-3-yl)(oxo)-λ^6-sulfaneylidene)-2-(4-(difluoromethyl)-2,6-diisopropylphenyl) acetamide], for which the pIC50 (in general, the negative decadic logarithm of the IC50, by convention in mol/L) was less than 4.52. Same read-out and setting: then `CC(C)c1cc(F)cc(C(C)C)c1C(C)C(=O)N=S(N)(=O)c1cnc(C(C)(C)O)s1` (centres unmarked) [Example 96, N-(amino(2-(2-hydroxypropan-2-yl)thiazol-5-yl)(oxo)-λ^6-sulfaneylidene)-2-(4-fluoro-2,6-diisopropylphenyl)propanamide], with less than 4.52; and `CC(C)c1cc2c(c(C(C)C)c1CC(=O)N=S(N)(=O)c1cnc(C(C)(C)O)s1)COC2=O` (single isomer, unassigned) [Example 318, (S) or (R)-N-(amino(2-(2-hydroxypropan-2-yl)thiazol-5-yl)(oxo)-λ^6-sulfaneylidene)-2-(4,6-diisopropyl-1-oxo-1,3-dihydroisobenzofuran-5-yl)acetamide], with less than 4.52; and `CC(C)c1cc(CCC2CCOCC2)cc(C(C)C)c1CC(=O)N=[S@](N)(=O)c1cc(C(C)(C)O)n(-c2ccccc2)n1` (single isomer, unassigned) [Example 235, (S) or (R)-N-(amino(5-(2-hydroxypropan-2-yl)-1-phenyl-1H-pyrazol-3-yl)(oxo)-λ^6-2-(2,6-diisopropyl-4-(2-(tetrahydro-2H-pyran-4-yl)ethyl)phenyl)acetamide], with less than 4.52. Regarding `CC(C)c1cc(F)cc(C(C)C)c1C(C)C(=O)N=S(N)(=O)c1cnc(C(C)(C)O)s1` (racemic) [Example 193, (S, S) and (S, R)-N-(amino (2-(2-hydroxypropan-2-yl)thiazol-5-yl)(oxo)-λ^6-sulfaneylidene)-2-(4-fluoro-2,6-diisopropylphenyl) propanamide], the negative logarithm of the IC50 (pIC50) was less than 4.52.

The assay is the same for the next values; noted with them: Homo sapiens, THP-1, Table B1; 2% fetal bovine serum; class symbols; read-out: hTHP-1 IC50 (Average IC50 of compounds in hTHP-1 assay).
Regarding `CC(C)c1cc(F)cc(C(C)C)c1CC(=O)N=S(N)(=O)c1ncc(C(C)(C)O)s1` (centres unmarked) [Example 7, 2-(4-Fluoro-2,6-diisopropylphenyl)-N-(5-(2-hydroxypropan-2-yl)thiazole-2-sulfonimidoyl)acetamide], the pIC50 was 6.00 to 6.70. Regarding `CC(C)c1cc(F)cc(C(C)C)c1CC(=O)NS(=N)(=O)c1ccc(C(C)(C)O)cc1` (single isomer, unassigned) [Example 2], the pIC50 is 5.30 to 6.00. On the same count and under the same terms, then `CC(C)c1cc(C(F)F)nc(C(C)C)c1CC(=O)N=S(N)(=O)c1ccc(CN(C)C)cc1` (centres unmarked) [Example 258, N-(amino(4-((dimethylamino)methyl)phenyl) (oxo)-λ^6-sulfaneylidene)-2-(6-(difluoromethyl)-2,4-diisopropylpyridin-3-yl)acetamide], with 5.30 to 6.00. On the same count and under the same terms, then `CC(C)c1cc(C(F)F)cc(C(C)C)c1CC(=O)N=S(N)(=O)c1ncc(CN(C)C)cc1F` (centres unmarked) [Example 250], with 4.52 to 5.30; and `CC(C)c1cc(C#N)nc(C(C)C)c1CC(=O)NS(=N)(=O)c1sc(C(C)(C)O)nc1CO` (centres unmarked) [Example 237, 2-(6-cyano-2,4-diisopropylpyridin-3-yl)-N-(4-(hydroxymethyl)-2-(2-hydroxypropan-2-yl)thiazole-5-sulfonimidoyl)acetamide], with 4.52 to 5.30. Still for that read-out and setting: then `CC(C)c1cc(-c2ccc(Cl)c(Cl)c2)cc(C(C)C)c1CC(=O)N=S(N)(=O)c1ncc(C(C)(C)O)s1` (centres unmarked) [Example 122, N-(amino(5-(2-hydroxypropan-2-yl)thiazol-2-yl)(oxo)-λ^6-sulfaneylidene)-2-(3′,4′-dichloro-3,5-diisopropyl-[1,1′-biphenyl]-4-yl)acetamide], with 6.00 to 6.70; and `CC(C)c1cc(C#CC2CCOCC2)cc(C(C)C)c1CC(=O)N=S(N)(=O)c1cc(C(C)(C)O)n(-c2ccccc2)n1` (centres unmarked) [Example 229, N-(amino(5-(2-hydroxypropan-2-yl)-1-phenyl-1H-pyrazol-3-yl)(oxo)-λ^6-sulfaneylidene)-2-(2,6-diisopropyl-4-((tetrahydro-2H-pyran-4-yl)ethynyl)phenyl)acetamide], with 5.30 to 6.00. Regarding `CCc1cc2c(c(C(C)C)c1CC(=O)N=S(N)(=O)c1cc(C(C)(C)O)cs1)COC2` (single isomer, unassigned) [Example 295, (R) or (S)-N-(amino(4-(2-hydroxypropan-2-yl)thiophen-2-yl)(oxo)-λ^6-sulfaneylidene)-2-(6-ethyl-4-isopropyl-1,3-dihydroisobenzofuran-5-yl)acetamide], the pIC50 is 6.00 to 6.70. On the same count and under the same terms, then `CC(C)c1cc(C(=O)CC2CCCCC2)cc(C(C)C)c1CC(=O)N=S(N)(=O)c1cc(C(C)(C)O)n(-c2ccccc2)n1` (centres unmarked) [Example 227], with 5.30 to 6.00; and `CC(C)c1ncc(F)c(C(C)C)c1CC(=O)N=S(N)(=O)c1sc(C(C)(C)O)cc1F` (centres unmarked) [Example 149, N-(amino(3-fluoro-5-(2-hydroxypropan-2-yl)thiophen-2-yl)(oxo)-λ^6-sulfaneylidene)-2-(5-fluoro-2,4-diisopropylpyridin-3-yl) acetamide], with 6.00 to 6.70.

Staying with this assay, now noted: Homo sapiens, THP-1, Table B2; 2% fetal bovine serum; cells printed as numeric bound; read-out: hTHP-1 IC50 (Average IC50 of compounds in hTHP-1 assay).
On to `CC(C)c1cc2c(cnn2C)c(C(C)C)c1CC(=O)N=S(N)(=O)c1ncc(C(C)(C)O)s1` (centres unmarked) [Example 391, N-(Amino(5-(2-hydroxypropan-2-yl)thiazol-2-yl)(oxo)-λ^6-sulfaneylidene)-2-(4,6-diisopropyl-1-methyl-1H-indazol-5-yl)acetamide], for which the pIC50 was less than 4.52. Same read-out and setting: then `CC(C)c1cc(C#N)c(F)c(C(C)C)c1CC(=O)N=[S@@](=O)(NC#N)c1cnc([C@](C)(O)CO)s1` [Example 370, N-((R)-cyanamido(2-((R)-1,2-dihydroxypropan-2-yl)thiazol-5-yl)(oxo)-λ^6-sulfaneylidene)-2-(4-cyano-3-fluoro-2,6-diisopropylphenyl)acetamide], with less than 4.52.

Staying with this assay, now noted: Table B1; 2% fetal bovine serum; class symbols; read-out: hTHP-1 IC50 (Average IC50 of compounds in hTHP-1 assay).
Regarding `CC(C)c1nc(-c2cccc(C(F)(F)F)c2)c(F)c(C(C)C)c1CC(=O)N=S(N)(=O)c1cnc(C(C)(C)O)s1` (single isomer, unassigned) [Example 202, N-(amino(2-(2-hydroxypropan-2-yl)thiazol-5-yl)(oxo)-λ^6-sulfaneylidene)-2-(5-fluoro-2,4-diisopropyl-6-(3-(trifluoromethyl)phenyl)pyridin-3-yl) acetamide], the pIC50 was 6.00 to 6.70.

`CC(C)c1ccc(F)c(C(C)C)c1CC(=O)N=S(N)(=O)c1cnn2c1OCCC2` (single isomer, unassigned) [Example 311, (S) or (R)-N-(amino (6,7-dihydro-5H-pyrazolo[5,1-b][1,3]oxazin-3-yl)(oxo)-λ^6-sulfaneylidene)-2-(3-fluoro-2,6-diisopropylphenyl) acetamide]: the pIC50 was 4.52 to 5.30. With `CCc1cc2c(c(C(C)C)c1CC(=O)N=S(N)(=O)c1sc(C(C)(C)O)cc1F)COC2` (single isomer, unassigned) [Example 298, (S) or (R)-N-(amino(3-fluoro-5-(2-hydroxypropan-2-yl)thiophen-2-yl)(oxo)-λ^6-sulfaneylidene)-2-(6-ethyl-4-isopropyl-1,3-dihydroisobenzofuran-5-yl)acetamide], the pIC50 was 4.52 to 5.30.

Turning to `Cc1nc(C(C)(C)O)sc1S(N)(=O)=NC(=O)Cc1c(C(C)C)cc(OC(F)F)cc1C(C)C` (single isomer, unassigned) [Example 84, (S)- or (R)-2-(4-(difluoromethoxy)-2,6-diisopropylphenyl)-N-(2-(2-hydroxypropan-2-yl)-4-methylthiazol-5-ylsulfonimidoyl)acetamide], the pIC50 was 6.70 to 7.40. With `CC(C)c1cc(Cl)c(F)c(C2CC2)c1CC(=O)N=S(N)(=O)c1sc(C(C)(C)O)cc1F` (single isomer, unassigned) [Example 56, (S)- or (R)-2-(4-chloro-2-cyclopropyl-3-fluoro-6-isopropylphenyl)-N-(3-fluoro-5-(2-hydroxypropan-2-yl)thiophen-2-ylsulfonimidoyl)acetamide], the pIC50 is 6.00 to 6.70.

Turning to `CC(C)c1cc2c(c(C(C)C)c1CC(=O)N=S(N)(=O)c1cnc(C(C)(C)O)s1)COC2` (single isomer, unassigned) [Example 184, (S) or (R)-N-(amino(2-(2-hydroxypropan-2-yl)thiazol-5-yl)(oxo)-λ^6-sulfaneylidene)-2-(4,6-diisopropyl-1,3-dihydro-isobenzofuran-5-yl)acetamide], the negative-log IC50 (pIC50) was 4.52 to 5.30.

Consider `CC(C)c1cc2c(c(C(C)C)c1CC(=O)N=S(N)(=O)c1cc(C(C)(C)O)cs1)COC2` (single isomer, unassigned) [Example 216, (R) or (S)-N-(amino (4-(2-hydroxypropan-2-yl)thiophen-2-yl)(oxo)-λ^6-sulfaneylidene)-2-(4,6-diisopropyl-1,3-dihydroiso-benzofuran-5-yl)acetamide], for which the pIC50 is 6.00 to 6.70.

The same assay, now with this note: Table B2; 2% fetal bovine serum; class symbols; read-out: hTHP-1 IC50 (Average IC50 of compounds in hTHP-1 assay).
For the compound `CC(C)c1cc(C#N)c(F)c(C(C)C)c1CC(=O)N=S(N)(=O)c1cnc(C(O)(CO)CO)s1` (single isomer, unassigned) [Example 402, (R) or (S)-N-(amino(oxo) (2-(1,2,3-trihydroxypropan-2-yl)thiazol-5-yl)-λ^6-sulfaneylidene)-2-(4-cyano-3-fluoro-2,6-diisopropylphenyl)acetamide], the pIC50 was 6.00 to 6.70.

On to `CC(C)c1cc(C#N)c(F)c(C(C)C)c1CC(=O)N=S(N)(=O)c1cnc(C(O)(CO)CO)s1` (single isomer, unassigned) [Example 403, (S) or (R)-N-(amino(oxo) (2-(1,2,3-trihydroxypropan-2-yl)thiazol-5-yl)-λ^6-sulfaneylidene)-2-(4-cyano-3-fluoro-2,6-diisopropylphenyl)acetamide], for which the pIC50 is 4.52 to 5.30.
